Measurements taken from ChEMBL document CHEMBL4024706 (Eur J Med Chem, 2017).

Assays:
[1] = target: Ribosomal protein S6 kinase alpha-3 (Homo sapiens) (UniProt P51812); experiment: Inhibition of wild-type human partial length N-terminal RSK2 kinase domain 1 (M1 to D394 residues) expressed in mammalian expression system assessed as residual activity at 1 uM by Kinomescan method relative to control
[2] = test system: ALK tyrosine kinase receptor (Homo sapiens), Q9UM73 [L1196M]; experiment: Inhibition of […] human partial length ALK L1196M mutant (I1088 to E1409 residues) expressed in mammalian expression system assessed as residual activity at 1 uM by Kinomescan method relative to control
[3] = target: Homeodomain-interacting protein kinase 4 (Homo sapiens) (UniProt Q8NE63); experiment: Inhibition of wild-type human partial length HIPK4 (M1 to V384 residues) expressed in bacterial expression system assessed as residual activity at 1 uM by Kinomescan method relative to control
[4] = target: Protein kinase C epsilon type (Homo sapiens) (UniProt Q02156); experiment: Inhibition of wild-type human partial length PRKCE (A378 to P737 residues) expressed in mammalian expression system assessed as residual activity at 1 uM by Kinomescan method relative to control
[5] = target: Cyclin-dependent kinase 2 homolog (Plasmodium falciparum (isolate 3D7)) (UniProt P61075); experiment: Inhibition of wild-type Plasmodium falciparum isolate 3D7 full length PK5 (M1 to N288 residues) expressed in mammalian expression system assessed as residual activity at 1 uM by Kinomescan method relative to control
Cyclin-dependent kinase 2 homolog (Plasmodium falciparum (isolate 3D7)), sequence (P61075 whole entry, the tested form may be a part): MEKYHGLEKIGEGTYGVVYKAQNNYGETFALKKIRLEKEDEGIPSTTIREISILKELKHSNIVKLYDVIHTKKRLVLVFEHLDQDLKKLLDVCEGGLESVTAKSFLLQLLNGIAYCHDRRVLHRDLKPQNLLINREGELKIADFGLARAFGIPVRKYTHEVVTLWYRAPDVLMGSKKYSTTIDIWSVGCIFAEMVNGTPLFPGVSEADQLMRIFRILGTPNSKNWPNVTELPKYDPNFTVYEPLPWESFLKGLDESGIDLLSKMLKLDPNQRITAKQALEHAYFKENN

Pfeiffer = experiment: Induction of apoptosis in human Pfeiffer cells assessed as induction of caspase-3 cleavage after 48 hrs by immunoblot; type: functional, cell-based
[6] = target: Vascular endothelial growth factor receptor 1 (Homo sapiens) (UniProt P17948); experiment: Inhibition of wild-type human partial length FLT1 (R781 to F1239 residues) expressed in bacterial expression system assessed as residual activity at 1 uM by Kinomescan method relative to control
[7] = target: MAP kinase-interacting serine/threonine-protein kinase 2 (Homo sapiens) (UniProt Q9HBH9); experiment: Inhibition of wild-type human partial length MKNK2 (G63 to S388 residues) expressed in mammalian expression system assessed as residual activity at 1 uM by Kinomescan method relative to control
MAP kinase-interacting serine/threonine-protein kinase 2 (Homo sapiens), sequence (Q9HBH9 whole entry, looked up, the tested form may be a part): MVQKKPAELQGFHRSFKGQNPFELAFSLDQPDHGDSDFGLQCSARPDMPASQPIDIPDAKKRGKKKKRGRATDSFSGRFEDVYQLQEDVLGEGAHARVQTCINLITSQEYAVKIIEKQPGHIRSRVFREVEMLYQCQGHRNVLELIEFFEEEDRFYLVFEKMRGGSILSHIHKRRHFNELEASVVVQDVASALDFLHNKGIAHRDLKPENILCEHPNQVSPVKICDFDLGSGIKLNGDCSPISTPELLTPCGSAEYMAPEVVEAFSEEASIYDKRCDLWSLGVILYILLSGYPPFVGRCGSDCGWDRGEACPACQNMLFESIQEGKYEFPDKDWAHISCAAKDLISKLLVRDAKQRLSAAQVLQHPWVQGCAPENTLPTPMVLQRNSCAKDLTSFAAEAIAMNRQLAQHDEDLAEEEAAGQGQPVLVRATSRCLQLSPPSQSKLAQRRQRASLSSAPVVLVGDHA

[8] = target: Serine/threonine-protein kinase OSR1 (Homo sapiens) (UniProt O95747); experiment: Inhibition of wild-type human full length OSR1 (M1 to S527 residues) expressed in mammalian expression system assessed as residual activity at 1 uM by Kinomescan method relative to control
[9] = test system: Receptor-type tyrosine-protein kinase FLT3 (Homo sapiens), P36888 [K663Q]; experiment: Inhibition of human partial length FLT3 K663Q mutant (V592 to Y969 residues) expressed in bacterial expression system assessed as residual activity at 1 uM by Kinomescan method relative to control
[10] = target: Serine/threonine-protein kinase LATS1 (Homo sapiens) (UniProt O95835); experiment: Inhibition of wild-type human partial length LATS1 (Q678 to V1130 residues) expressed in bacterial expression system assessed as residual activity at 1 uM by Kinomescan method relative to control
Serine/threonine-protein kinase LATS1 (Homo sapiens), sequence (O95835 whole entry, the tested form may be a part): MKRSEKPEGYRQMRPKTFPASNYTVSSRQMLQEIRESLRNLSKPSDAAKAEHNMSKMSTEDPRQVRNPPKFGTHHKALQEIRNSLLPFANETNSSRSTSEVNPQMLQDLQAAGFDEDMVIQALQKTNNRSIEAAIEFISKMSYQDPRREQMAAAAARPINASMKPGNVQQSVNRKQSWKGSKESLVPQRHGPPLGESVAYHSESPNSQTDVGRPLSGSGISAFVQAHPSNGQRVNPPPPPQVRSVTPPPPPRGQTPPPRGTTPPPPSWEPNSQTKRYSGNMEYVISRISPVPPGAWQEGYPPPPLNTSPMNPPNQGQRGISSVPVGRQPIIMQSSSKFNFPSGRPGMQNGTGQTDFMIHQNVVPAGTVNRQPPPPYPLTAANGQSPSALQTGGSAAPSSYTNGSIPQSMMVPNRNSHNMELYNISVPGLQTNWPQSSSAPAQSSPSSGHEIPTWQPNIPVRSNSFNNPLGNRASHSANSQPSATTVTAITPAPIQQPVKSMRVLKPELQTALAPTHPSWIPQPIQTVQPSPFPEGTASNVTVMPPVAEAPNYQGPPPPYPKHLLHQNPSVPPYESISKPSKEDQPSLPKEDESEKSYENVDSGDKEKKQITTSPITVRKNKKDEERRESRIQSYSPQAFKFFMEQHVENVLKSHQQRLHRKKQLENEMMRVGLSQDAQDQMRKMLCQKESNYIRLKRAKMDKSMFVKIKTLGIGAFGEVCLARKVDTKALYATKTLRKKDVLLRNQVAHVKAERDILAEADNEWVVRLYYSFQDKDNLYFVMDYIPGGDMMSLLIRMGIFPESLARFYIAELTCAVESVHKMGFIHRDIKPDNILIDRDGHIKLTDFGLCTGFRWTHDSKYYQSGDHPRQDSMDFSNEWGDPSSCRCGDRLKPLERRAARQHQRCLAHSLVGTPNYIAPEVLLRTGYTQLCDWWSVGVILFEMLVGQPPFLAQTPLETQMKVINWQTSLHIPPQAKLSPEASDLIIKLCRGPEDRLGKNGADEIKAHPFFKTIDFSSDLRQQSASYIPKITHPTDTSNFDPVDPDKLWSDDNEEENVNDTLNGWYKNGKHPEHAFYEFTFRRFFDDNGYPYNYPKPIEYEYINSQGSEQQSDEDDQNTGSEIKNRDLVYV

[11] = target: Serine/threonine-protein kinase mTOR (Homo sapiens) (UniProt P42345); experiment: Inhibition of wild-type human partial length MTOR (L1382 to W2549 residues) expressed in mammalian expression system assessed as residual activity at 1 uM by Kinomescan method relative to control
[12] = target: Serine/threonine-protein kinase SIK3 (Homo sapiens) (UniProt Q9Y2K2); experiment: Inhibition of wild-type human partial length QSK (A90 to L395 residues) expressed in mammalian expression system assessed as residual activity at 1 uM by Kinomescan method relative to control
[13] = target: Receptor-interacting serine/threonine-protein kinase 1 (Homo sapiens) (UniProt Q13546); experiment: Inhibition of wild-type human partial length RIPK1 (M1 to K305 residues) expressed in bacterial expression system assessed as residual activity at 1 uM by Kinomescan method relative to control
[14] = target: Serine/threonine-protein kinase BRSK1 (Homo sapiens) (UniProt Q8TDC3); experiment: Inhibition of wild-type human partial length BRSK1 (M1 to E754 residues) expressed in bacterial expression system assessed as residual activity at 1 uM by Kinomescan method relative to control
Ramos = experiment: Growth inhibition of human Ramos cells; type: functional; details: Homo sapiens, Ramos
[15] = target: Ephrin type-A receptor 8 (Homo sapiens) (UniProt P29322); experiment: Inhibition of wild-type human partial length EPHA8 (Q608 to C920 residues) expressed in bacterial expression system assessed as residual activity at 1 uM by Kinomescan method relative to control
Ephrin type-A receptor 8 (Homo sapiens), sequence (P29322 whole entry, the tested form may be a part): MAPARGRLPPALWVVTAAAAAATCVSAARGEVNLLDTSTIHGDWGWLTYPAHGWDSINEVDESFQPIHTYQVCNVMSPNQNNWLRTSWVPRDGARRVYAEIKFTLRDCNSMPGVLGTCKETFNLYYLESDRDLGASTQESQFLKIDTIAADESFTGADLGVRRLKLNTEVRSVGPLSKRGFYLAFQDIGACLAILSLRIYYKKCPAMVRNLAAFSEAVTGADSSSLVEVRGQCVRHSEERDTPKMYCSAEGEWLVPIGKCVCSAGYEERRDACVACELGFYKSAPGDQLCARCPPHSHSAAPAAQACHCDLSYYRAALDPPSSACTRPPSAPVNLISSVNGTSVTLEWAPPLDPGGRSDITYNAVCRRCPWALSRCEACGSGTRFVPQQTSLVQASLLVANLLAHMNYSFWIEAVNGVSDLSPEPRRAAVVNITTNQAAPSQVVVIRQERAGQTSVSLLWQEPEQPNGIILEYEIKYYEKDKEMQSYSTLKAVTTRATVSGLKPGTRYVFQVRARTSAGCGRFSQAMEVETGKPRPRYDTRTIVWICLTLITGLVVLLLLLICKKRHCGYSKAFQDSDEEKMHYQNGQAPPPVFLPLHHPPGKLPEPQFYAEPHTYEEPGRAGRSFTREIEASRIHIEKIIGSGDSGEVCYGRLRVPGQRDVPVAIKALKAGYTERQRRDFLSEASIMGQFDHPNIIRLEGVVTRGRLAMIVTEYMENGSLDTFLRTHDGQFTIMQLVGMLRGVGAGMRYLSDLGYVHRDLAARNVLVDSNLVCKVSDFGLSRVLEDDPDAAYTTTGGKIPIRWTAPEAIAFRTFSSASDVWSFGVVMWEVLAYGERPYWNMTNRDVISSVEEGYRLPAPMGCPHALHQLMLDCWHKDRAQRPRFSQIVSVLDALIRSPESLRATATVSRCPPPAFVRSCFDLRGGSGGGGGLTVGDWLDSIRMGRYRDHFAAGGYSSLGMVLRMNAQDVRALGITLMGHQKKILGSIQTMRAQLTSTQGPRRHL

[16] = target: Serine/threonine-protein kinase 25 (Homo sapiens) (UniProt O00506); experiment: Inhibition of wild-type human partial length YSK1 (V14 to H295 residues) expressed in bacterial expression system assessed as residual activity at 1 uM by Kinomescan method relative to control
[17] = test system: Tyrosine-protein kinase ABL1 (Homo sapiens), P00519 [T315I]; experiment: Inhibition of human non-phosphorylated ABL1 T315I mutant (S229 to K512 residues) expressed in mammalian expression system assessed as residual activity at 1 uM by Kinomescan method relative to control
[18] = target: cGMP-dependent protein kinase 1 (Homo sapiens) (UniProt Q13976); experiment: Inhibition of wild-type human partial length PRKG1 (L339 to F686 residues) expressed in bacterial expression system assessed as residual activity at 1 uM by Kinomescan method relative to control
cGMP-dependent protein kinase 1 (Homo sapiens), sequence (Q13976 whole entry, the tested form may be a part): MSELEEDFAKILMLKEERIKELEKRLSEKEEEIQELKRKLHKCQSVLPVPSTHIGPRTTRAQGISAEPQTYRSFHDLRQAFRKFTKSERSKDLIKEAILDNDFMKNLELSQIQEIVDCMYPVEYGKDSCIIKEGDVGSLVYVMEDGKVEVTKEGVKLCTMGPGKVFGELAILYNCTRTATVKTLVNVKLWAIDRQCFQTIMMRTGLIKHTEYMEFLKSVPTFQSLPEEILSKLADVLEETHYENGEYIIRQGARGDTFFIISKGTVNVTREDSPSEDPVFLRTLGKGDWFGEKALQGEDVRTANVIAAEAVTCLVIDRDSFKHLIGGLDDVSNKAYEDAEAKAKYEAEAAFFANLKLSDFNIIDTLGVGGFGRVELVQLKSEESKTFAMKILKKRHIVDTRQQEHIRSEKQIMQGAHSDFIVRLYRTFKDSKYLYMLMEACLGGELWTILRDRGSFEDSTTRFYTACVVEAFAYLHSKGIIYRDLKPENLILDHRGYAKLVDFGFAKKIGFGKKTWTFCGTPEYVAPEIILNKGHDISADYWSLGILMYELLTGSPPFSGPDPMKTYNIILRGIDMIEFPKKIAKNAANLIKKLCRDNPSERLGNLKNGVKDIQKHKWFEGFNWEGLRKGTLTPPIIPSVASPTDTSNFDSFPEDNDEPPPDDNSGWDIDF

[19] = target: BMP-2-inducible protein kinase (Homo sapiens) (UniProt Q9NSY1); experiment: Inhibition of wild-type human partial length BIKE (S34 to N329 residues) expressed in bacterial expression system assessed as residual activity at 1 uM by Kinomescan method relative to control
[20] = target: Serine/threonine-protein kinase 32B (Homo sapiens) (UniProt Q9NY57); experiment: Inhibition of wild-type human full length YANK2 (M1 to S414 residues) expressed in bacterial expression system assessed as residual activity at 1 uM by Kinomescan method relative to control
[21] = target: Cyclin-dependent kinase 11A (Homo sapiens) (UniProt Q9UQ88); experiment: Inhibition of wild-type human partial length CDC2L2 (D391 to K730 residues) expressed in bacterial expression system assessed as residual activity at 1 uM by Kinomescan method relative to control
[22] = target: Ribosomal protein S6 kinase alpha-4 (Homo sapiens) (UniProt O75676); experiment: Inhibition of wild-type human partial length C-terminal RPS6KA4 kinase domain 2 (M375 to T705 residues) expressed in mammalian expression system assessed as residual activity at 1 uM by Kinomescan method relative to control
Ribosomal protein S6 kinase alpha-4 (Homo sapiens), sequence (O75676 whole entry, looked up, the tested form may be a part): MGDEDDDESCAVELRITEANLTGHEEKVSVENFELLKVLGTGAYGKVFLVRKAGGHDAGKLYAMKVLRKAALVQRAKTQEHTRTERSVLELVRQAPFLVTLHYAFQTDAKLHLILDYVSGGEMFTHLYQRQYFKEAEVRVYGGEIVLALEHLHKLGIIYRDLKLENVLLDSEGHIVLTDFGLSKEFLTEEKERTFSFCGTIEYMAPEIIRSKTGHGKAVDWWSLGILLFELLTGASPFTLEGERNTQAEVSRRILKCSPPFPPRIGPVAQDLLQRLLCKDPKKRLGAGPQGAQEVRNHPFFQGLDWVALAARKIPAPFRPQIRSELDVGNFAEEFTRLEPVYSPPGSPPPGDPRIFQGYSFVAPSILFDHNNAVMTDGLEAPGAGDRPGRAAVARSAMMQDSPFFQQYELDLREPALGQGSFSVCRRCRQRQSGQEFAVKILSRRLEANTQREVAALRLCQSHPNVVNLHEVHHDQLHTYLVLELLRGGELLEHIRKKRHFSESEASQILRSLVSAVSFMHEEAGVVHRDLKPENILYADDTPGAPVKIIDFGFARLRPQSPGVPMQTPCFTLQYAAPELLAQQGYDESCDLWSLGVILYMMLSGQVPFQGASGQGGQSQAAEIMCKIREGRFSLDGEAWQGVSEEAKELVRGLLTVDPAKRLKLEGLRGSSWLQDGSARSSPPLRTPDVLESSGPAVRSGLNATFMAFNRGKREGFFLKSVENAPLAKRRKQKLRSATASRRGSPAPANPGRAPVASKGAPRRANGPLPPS

[23] = target: Dual specificity mitogen-activated protein kinase kinase 6 (Homo sapiens) (UniProt P52564); experiment: Inhibition of wild-type human partial length MEK6 (K36 to D334 residues) expressed in bacterial expression system assessed as residual activity at 1 uM by Kinomescan method relative to control
[24] = target: cAMP-dependent protein kinase catalytic subunit beta (Homo sapiens) (UniProt P22694); experiment: Inhibition of wild-type human full length PKAC-beta (M1 to F351 residues) expressed in bacterial expression system assessed as residual activity at 1 uM by Kinomescan method relative to control

Ribosomal protein S6 kinase alpha-3 (Homo sapiens), sequence (P51812 whole entry, the tested form may be a part): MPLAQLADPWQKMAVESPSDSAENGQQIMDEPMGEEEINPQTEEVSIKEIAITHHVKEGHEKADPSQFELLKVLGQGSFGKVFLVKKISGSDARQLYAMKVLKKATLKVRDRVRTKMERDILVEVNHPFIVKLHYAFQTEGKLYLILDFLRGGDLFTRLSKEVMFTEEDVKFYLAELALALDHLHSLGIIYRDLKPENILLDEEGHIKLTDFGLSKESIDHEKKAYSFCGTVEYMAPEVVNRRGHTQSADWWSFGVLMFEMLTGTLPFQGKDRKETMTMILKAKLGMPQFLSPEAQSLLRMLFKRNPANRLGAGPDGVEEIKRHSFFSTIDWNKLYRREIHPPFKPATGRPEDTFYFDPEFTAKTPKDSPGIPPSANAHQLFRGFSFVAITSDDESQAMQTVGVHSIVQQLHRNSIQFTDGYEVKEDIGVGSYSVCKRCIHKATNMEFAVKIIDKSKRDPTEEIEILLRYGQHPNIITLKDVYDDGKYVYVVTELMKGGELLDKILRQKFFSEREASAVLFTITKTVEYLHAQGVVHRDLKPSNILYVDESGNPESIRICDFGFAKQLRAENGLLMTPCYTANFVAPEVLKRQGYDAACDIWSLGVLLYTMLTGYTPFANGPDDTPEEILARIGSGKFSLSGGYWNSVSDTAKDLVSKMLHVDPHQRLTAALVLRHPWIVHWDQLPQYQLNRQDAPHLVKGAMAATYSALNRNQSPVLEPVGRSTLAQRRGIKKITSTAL

C=CC(=O)Nc1cc(Nc2cc(-c3cccc(NC(=O)c4ccc(C(C)(C)C)cc4)c3C)cn(C)c2=O)ccc1C(=O)N1CCOCC1
Activity [1]: 100% | Activity [2]: 96% | Activity [3]: 79% | Activity [4]: 96% | Activity [5]: 88% | Activity (Pfeiffer): Dose-dependent effect | Activity [6]: 97% | Activity [7]: 89% | Activity [8]: 100% | Activity [9]: 94% | Activity [10]: 74% | Activity [11]: 100% | Activity [12]: 78% | Activity [13]: 100% | Activity [14]: 100% | GI50 (Ramos): 3.5 µM | Activity [15]: 97% | Activity [16]: 96% | Activity [17]: 99% | Activity [18]: 95% | Activity [19]: 94% | Activity [20]: 100% | Activity [21]: 94% | Activity [22]: 100% | Activity [23]: 100% | Activity [24]: 96%
